Data taken from article PMC5532645, “Design, Synthesis, and Antifouling Activity of Glucosamine-Based Isocyanides” (Marine Drugs, 2017).
Converted amounts (≈) assume the structure as drawn. Like-named read-outs stand apart in the source and are kept apart here.

How the values were obtained:
[1] = test system: cypris larvae of the barnacle Amphibalanus amphitrite; conditions: cited from earlier work
[2] = Antifouling assay: settlement and mortality of barnacle cyprids after 48 h; assay type: in vivo; conditions: cypris larvae, 48 h incubation, read-out: LC50 (toxicity)
Method: (§1) Adult barnacles (Amphibalanus amphitrite) procured from oyster farms at Lake Hamana and a pier at Shimizu bay, Shizuoka, were kept in an aquarium at 20 °C and fed on Artemia salina nauplii. Broods were released as I–II stage nauplii upon immersion in seawater after drying overnight. The nauplii thus obtained were cultured in filtered natural seawater (salinity 28) containing penicillin G (20 μg/mL) and streptomycin sulfate (30 μg/mL) and were fed on the diatom Chaetoceros gracilis at concentrations of 40 × 10^4 cells/mL. […] The cyprids were collected and stored at 4 °C until use (0 days old).
(§2) The test compounds were dissolved in ethanol and aliquots of the solution were transferred to wells of a 24-well polystyrene culture plate and air-dried. Four wells were used for each concentration. To each well, filtered seawater (2.0 mL, salinity 28) and six 2-day-old cyprids were added. The plates were kept in the dark at 25 °C for 48 h. […] Three or four trials were done for each concentration. Probit analysis was used to calculate the EC50 values.

[3] = test system: cypris larvae of the barnacle Amphibalanus amphitrite; assay: as above; assay type: in vivo; conditions: for EC50: Amphibalanus amphitrite, 48 h, read-out: EC50 (antifouling activity), cypris larvae, 48 h incubation, probit analysis; for toxicity / mortality of cypris larvae: at a concentration of 10 μg/mL
Method: as §1, §2

[4] = synthetic sample of 1 and its synthetic intermediates
[5] = Amphibalanus amphitrite (barnacle, in vivo, other: immersion in seawater holding the compound)

Row | SMILES | LC50 at 48 h [2, 5] [µg/mL] | EC50 [3] [µg/mL] | further results
1 | [C-]#[N+][C@]1(C)CC[C@@H](/C(C)=C/C=C/C(C)C)CC1 [Compound 4, 3-isocyanotheonellin] |  |  | EC50 (antifouling activity) ([1]; previously reported): 0.19 µg/mL (≈ 0.821 µM); LC50 ([1]; previously reported): > 10 µg/mL
2 | CC1=C[C@H]2[C@H](CC1)[C@@H](O)CC[C@@H]2C(C)C [Compound 2] |  |  | EC50 (antifouling activity) [1, 4]: 0.31 µg/mL (≈ 1.49 µM); LC50 [1, 4]: > 10 µg/mL
3 | [C-]#[N+][C@H]1[C@H](OC(=O)CCCCCCCCCCCCCCC)O[C@H](COC(=O)CCCCCCCCCCCCCCC)[C@@H](OC(=O)CCCCCCCCCCCCCCC)[C@@H]1OC(=O)CCCCCCCCCCCCCCC [Compound 6b] | > 10 | > 5 | toxicity / mortality of cypris larvae [3]: lethal larva was not observed
4 | O=S(=O)([O-])[O-].[Cu+2] [CuSO4] |  |  | EC50 (antifouling activity) ([1]; CuSO4 used as a fouling inhibitor): 0.27 µg/mL
5 | [C-]#[N+][C@H]1[C@H](OC(C)C)O[C@H](COC(=O)CCCCCCCCCCCCCCC)[C@@H](OC(=O)CCCCCCCCCCCCCCC)[C@@H]1OC(=O)CCCCCCCCCCCCCCC [Compound 6i] | > 10 | 0.31 (≈ 0.328 µM) | 
6 | [C-]#[N+][C@H]1[C@H](OC(C)=O)O[C@H](COC(C)=O)[C@@H](OC(C)=O)[C@@H]1OC(C)=O [Compound 6a] | > 10 | > 5 | toxicity / mortality of cypris larvae [3]: lethal larva was not observed
7 | [C-]#[N+][C@H]1[C@H](OC(C)C)O[C@H](COC(C)=O)[C@@H](OC(C)=O)[C@@H]1OC(C)=O [Compound 6f] | > 10 | 0.23 (≈ 0.644 µM) | 
8 | [C-]#[N+][C@H]1[C@H](OCC=C)O[C@H](COC(C)=O)[C@@H](OC(C)=O)[C@@H]1OC(C)=O [Compound 6e] | > 10 | 0.37 (≈ 1.04 µM) | 
9 | [C-]#[N+][C@H]1[C@H](Oc2ccccc2)O[C@H](COC(C)=O)[C@@H](OC(C)=O)[C@@H]1OC(C)=O [Compound 6c] | > 10 | 0.71 (≈ 1.81 µM) | 
10 | [C-]#[N+][C@H]1[C@H](OCC(F)(F)F)O[C@H](COC(C)=O)[C@@H](OC(C)=O)[C@@H]1OC(C)=O [Compound 6g] | > 10 | 0.36 (≈ 0.906 µM) | 
11 | [C-]#[N+][C@@]1(C)CC[C@H](C(C)C)[C@H]2C=C(C)CC[C@@H]21 [Compound 1, 10-isocyano-4-cadinene] |  |  | EC50 (antifouling activity) ([1]; natural compound obtained from nudibranchs): 0.14 µg/mL (≈ 0.605 µM); LC50 (50% lethal concentration) ([1]; natural compound): > 10 µg/mL; EC50 (antifouling activity) [1, 4]: 0.06 µg/mL (≈ 0.259 µM); LC50 [1, 4]: > 10 µg/mL
12 | [C-]#[N+][C@H]1[C@H](OC(C)C)O[C@H](COC(=O)c2ccccc2)[C@@H](OC(=O)c2ccccc2)[C@@H]1OC(=O)c1ccccc1 [Compound 6j] | > 10 | 0.81 (≈ 1.49 µM) | 
13 | [C-]#[N+][C@H]1[C@H](OC(C)C)O[C@H](CO[Si](C)(C)C(C)(C)C)[C@@H](O[Si](C)(C)C(C)(C)C)[C@@H]1O[Si](C)(C)C(C)(C)C [Compound 6k] |  | 0.25 (≈ 0.436 µM) | LC50 at 48 h ([2]; Amphibalanus amphitrite (barnacle, in vivo)): > 10 µg/mL
14 | [C-]#[N+][C@H]1[C@H](OC(C)C)O[C@H](COC(=O)CCCCCCC)[C@@H](OC(=O)CCCCCCC)[C@@H]1OC(=O)CCCCCCC [Compound 6h] | > 10 | 0.79 (≈ 1.3 µM) | 
15 | [C-]#[N+][C@H]1[C@H](OCc2ccccc2)O[C@H](COC(C)=O)[C@@H](OC(C)=O)[C@@H]1OC(C)=O [Compound 6d] | > 10 | 0.7 (≈ 1.73 µM) | 
